Experimental data reported in the METLIN SMRT retention time set (Domingo-Almenara et al. 2019).

Experiment: gradient 5% acetonitrile 3 min, to 50% in 2 min, to 85% in 15 min, held 3 min, 100 µL/min
Conditions: column: Zorbax Extend-C18 2.1 x 50 mm; eluents: water / acetonitrile, 0.1% formic acid
Procedure, shortened: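 Data were gathered over 3 months by HPLC coupled to a quadrupole time-of-flight mass spectrometer, operated in positive and negative ionization mode. Mixtures of ~100 pure standards ran on a Zorbax Extend-C18 column (2.1 × 50 mm, 1.8 μm) at 100 μL/min, with water and acetonitrile each containing 0.1% formic acid and dead and dwell volumes of 40 μL and 900 μL. Retention time was read from adduct peaks picked by computer and checked manually.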

RP-LC retention time | SMILES
684 s | O=C(c1ccc(C(F)(F)F)cc1)N1CCN(c2nc(CN3CCCCC3)cs2)CC1
733 s | Cc1cc(N2CCOCC2)nc(N2CCN(S(=O)(=O)c3cc(C)c(C)cc3C)CC2)n1
726 s | Cc1cccc(C(=O)N2CCN(c3c(C)n(C)c(=O)n(C)c3=O)CC2)c1
1320 s | Cc1cccc(-c2nc(C3CCN(S(=O)(=O)c4cc(C)ccc4C)CC3)no2)c1
1230 s | CC(C)Cc1csc(-c2csc(S(=O)(=O)Nc3cccc(Cl)c3)c2)n1
862 s | CC(CCc1ccco1)NC(=O)c1nnn(-c2ccccc2)c1-c1ccccn1 (stereo unspecified)
1360 s | COc1nc2ccccc2nc1N1CCCC(C(=O)N2CCN(c3ccccc3Cl)CC2)C1 (stereo unspecified)
752 s | CCC(Oc1ccc(=O)n(-c2ccc(F)cc2)n1)C(=O)NCc1ccc2c(c1)OCO2 (stereo unspecified)
1090 s | COc1cc(C2CC(=O)c3c([nH]c(C(=O)OC4CCCCC4)c3C)C2)cc(OC)c1OC (stereo unspecified)
1040 s | CC(C)Oc1ccc(-c2noc(CN3N=NC4C(=O)N(c5cccc(Cl)c5)C(=O)C43)n2)cc1 (stereo unspecified)
615 s | COC(=O)c1ccc(Nc2nc(C)nc3c2CCC3)cc1
966 s | O=C(Cc1c(Sc2ccc(F)cc2)[nH]c2ccccc12)N1CCN(c2ncccn2)CC1
770 s | Cn1cc(S(=O)(=O)N2CCC(C(=O)NC3CCCCCC3)CC2)cc1C(=O)N1CCCC1
903 s | CCOc1ccc(S(=O)(=O)N2CCC(C(=O)Nc3ccc4c(c3)OCCO4)CC2)cc1
670 s | CN1CCCN(c2ccc(NC(=O)c3ccc(Br)cc3)c(C(=O)O)c2)CC1
1300 s | CCc1cc(Br)ccc1NC(=O)C1CCCN(c2nc3ccccc3nc2OC)C1 (stereo unspecified)
1030 s | CCn1c(=O)c(N2CCN(C(=O)Nc3ccc(Br)cc3)CC2)nc2cccnc21
734 s | CCCn1cc(C(=O)NCc2ccc(N3CCOCC3)cc2)c2cccnc21

RP-LC retention time | SMILES
670 s | COc1cc2c(C(=O)OCCc3ccccn3)cn(-c3ccccc3)c(=O)c2cc1OC
633 s | COc1ccc(CNC(=O)C2CCN(c3cnc4nccnc4c3)CC2)cc1OC
1010 s | CCc1noc(-c2nc(-c3ccccc3F)no2)n1
1070 s | Cc1sc(-c2cc(C(F)(F)F)on2)cc1S(=O)(=O)Nc1ccc2c(c1)OCCO2
774 s | O=C(CCn1cnc2cc(-c3noc(/C=C/c4cccs4)n3)ccc21)N1CCCC1
801 s | CCc1cc(C2CCCN2C(=O)Nc2ccc(C(=O)OC)cc2)on1 (stereo unspecified)
1110 s | CC(C)OC(=O)COC(=O)c1cn(-c2cccc(F)c2)c(=O)c2ccccc12
597 s | CC(C)CCC(=O)N1CCN(c2nc3c(s2)CN(C)CC3)CC1
841 s | CC(C)(C)c1cc(NCc2ccccn2)n2ncc(-c3ccc(Cl)cc3)c2n1
719 s | O=C(Nc1nccs1)C1CCN(C(=O)Cn2ccc3ccccc32)CC1
564 s | CC1CCCCN1CCCNC(=O)CN1C(=O)CCn2nc(-c3cn(C)c4ccccc34)cc21 (stereo unspecified)
610 s | O=C(Cn1ncc2c(N3CCN(c4ccccn4)CC3)ncnc21)Nc1ccccc1C(F)(F)F
747 s | O=C(c1cccnc1)N1CCC(COCc2ccccc2)CC1
570 s | Cc1ccnc(NC(=O)C2CCCN(c3cc(=O)n(C)c(=O)n3C)C2)c1 (stereo unspecified)
816 s | CC(Oc1cccc(Cl)c1)C(=O)NCC1(C)CCOCC1 (stereo unspecified)
791 s | Cc1ccc(NC(=O)Cn2nc3cc(C)nc(N4CCCC4)n3c2=O)c(C)c1
878 s | O=[N+]([O-])c1ccc2c(c1)CN(S(=O)(=O)c1cccs1)CC2
760 s | O=C(NCc1ccccn1)c1nnn(Cc2ccc(Cl)cc2)c1-n1cccc1
